Molecules are shown by their SMILES.

Sequence of Protein smoothened (Q99835 whole entry): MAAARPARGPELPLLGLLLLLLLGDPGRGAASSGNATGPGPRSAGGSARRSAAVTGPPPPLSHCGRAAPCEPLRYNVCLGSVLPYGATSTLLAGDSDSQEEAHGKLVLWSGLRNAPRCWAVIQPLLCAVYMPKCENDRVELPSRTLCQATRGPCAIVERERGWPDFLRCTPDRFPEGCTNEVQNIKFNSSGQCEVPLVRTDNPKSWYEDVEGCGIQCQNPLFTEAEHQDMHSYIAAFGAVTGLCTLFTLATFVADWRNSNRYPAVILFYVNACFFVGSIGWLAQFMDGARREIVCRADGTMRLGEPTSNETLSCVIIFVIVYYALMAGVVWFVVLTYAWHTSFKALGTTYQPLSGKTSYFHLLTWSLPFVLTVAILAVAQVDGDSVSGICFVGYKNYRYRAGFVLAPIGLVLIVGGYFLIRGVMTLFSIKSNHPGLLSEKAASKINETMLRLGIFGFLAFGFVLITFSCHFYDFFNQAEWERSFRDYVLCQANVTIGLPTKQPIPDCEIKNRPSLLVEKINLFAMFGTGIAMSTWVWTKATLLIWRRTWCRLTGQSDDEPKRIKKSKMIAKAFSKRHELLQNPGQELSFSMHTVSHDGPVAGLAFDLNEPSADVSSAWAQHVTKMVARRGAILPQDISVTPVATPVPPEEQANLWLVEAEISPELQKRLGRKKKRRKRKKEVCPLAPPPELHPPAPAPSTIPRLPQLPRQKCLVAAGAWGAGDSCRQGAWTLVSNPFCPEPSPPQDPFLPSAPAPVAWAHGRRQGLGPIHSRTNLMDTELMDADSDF

The assay has as its target Protein smoothened (Homo sapiens, UniProt Q99835). Put plainly: Inhibition of Smo receptor (unknown origin) expressed in NIH3T3 cells assessed as inhibition of Smo agonist SAG-induced GRE activation after 30 hrs by luciferase reporter gene assay. It counts as cell-based.
A word on the IC50: it is the midpoint of a concentration-inhibition curve. As for `CCNC(=O)c1cn2c(n1)CN(c1cc(-c3ncc(C)cc3C)c(Cl)cn1)CC2`, the IC50 is 1300 nM.
Then `CCOC(=O)c1cn2c(n1)CN(c1cc(-c3ncc(C)cc3C)c(Cl)cn1)CC2`, with 690 nM; and `Cc1cnc(-c2cc(N3CCn4cc(C(=O)O)nc4C3)ncc2Cl)c(C)c1`, with greater than 10000 nM; and `CNC(=O)c1cn2c(n1)CN(c1cc(-c3ncc(C)cc3C)c(Cl)cn1)CC2`, with 2700 nM.
`Cc1cnc(-c2cc(N3CCn4cc(C(=O)NCC5CC5)nc4C3)ncc2Cl)c(C)c1`: the IC50 turned out to be 520 nM.
Then `Cc1cnc(-c2cc(N3CCn4cc(C(=O)N(C)CCO)nc4C3)ncc2Cl)c(C)c1`, with 4100 nM; and `Cc1cnc(-c2cc(N3CCn4cc(C(=O)N5CCCC5)nc4C3)ncc2Cl)c(C)c1`, with 270 nM; and `Cc1cnc(-c2cc(N3CCn4cc(C(=O)N5CCOCC5)nc4C3)ncc2Cl)c(C)c1`, with 790 nM.
With `Cc1cnc(-c2cc(N3CCn4cc(C(=O)N5CC(O)C5)nc4C3)ncc2Cl)c(C)c1`, the IC50 is greater than 10000 nM.
`Cc1cnc(-c2cc(N3CCn4cc(C(=O)N5CCC(O)C5)nc4C3)ncc2Cl)c(C)c1` (centres undefined): the IC50 was greater than 10000 nM.
In the case of `COC[C@H]1CCCN1C(=O)c1cn2c(n1)CN(c1cc(-c3ncc(C)cc3C)c(Cl)cn1)CC2`, the IC50 was determined as 550 nM.
As to `Cc1cnc(-c2cc(N3CCn4cc(C(=O)N5CCC(O)CC5)nc4C3)ncc2Cl)c(C)c1`, the IC50 worked out at 1200 nM.
Regarding `Cc1cnc(-c2cc(N3CCn4cc(C(=O)N5CC(C)NC(C)C5)nc4C3)ncc2Cl)c(C)c1` (centres undefined), the IC50 worked out at 1500 nM.
Regarding `Cc1cnc(-c2cc(N3CCn4cc(C(=O)Nc5ccccc5)nc4C3)ncc2Cl)c(C)c1`, the IC50 stood at 300 nM.
Then `Cc1cnc(-c2cc(N3CCn4cc(C(=O)Nc5ccccc5F)nc4C3)ncc2Cl)c(C)c1`, with 350 nM; and `Cc1cnc(-c2cc(N3CCn4cc(C(=O)Nc5cccc(F)c5)nc4C3)ncc2Cl)c(C)c1`, with 87 nM; and `Cc1cnc(-c2cc(N3CCn4cc(C(=O)Nc5ccc(F)cc5)nc4C3)ncc2Cl)c(C)c1`, with 440 nM.
On to `Cc1cnc(-c2cc(N3CCn4cc(C(=O)Nc5ccc(F)c(F)c5)nc4C3)ncc2Cl)c(C)c1`, for which the IC50 came out at 420 nM.
On to `Cc1cnc(-c2cc(N3CCn4cc(C(=O)Nc5ccccn5)nc4C3)ncc2Cl)c(C)c1`, for which the IC50 is 270 nM.
With `Cc1cnc(-c2cc(N3CCn4cc(C(=O)Nc5cccnc5)nc4C3)ncc2Cl)c(C)c1`, the IC50 amounted to 200 nM.
On to `Cc1cnc(-c2cc(N3CCn4cc(C(=O)OC(C)C)nc4C3)ncc2Cl)c(C)c1`, for which the IC50 was determined as 380 nM.
As to `Cc1cnc(-c2cc(N3CCn4cc(C(=O)OCC5CC5)nc4C3)ncc2Cl)c(C)c1`, the IC50 was determined as 270 nM.
Consider `Cc1cnc(-c2cc(N3CCn4cc(C(=O)OC5CCCC5)nc4C3)ncc2Cl)c(C)c1`, for which the IC50 worked out at 740 nM.
In the case of `Cc1cnc(-c2cc(N3CCn4cc(C(=O)Oc5ccccc5)nc4C3)ncc2Cl)c(C)c1`, the IC50 was found to be 960 nM.
Take `Cc1cnc(-c2cc(N3CCn4cc(CO)nc4C3)ncc2Cl)c(C)c1`: the IC50 worked out at 4100 nM.
For `Cc1cnc(-c2cc(N3CCn4cc(CN5CCOCC5)nc4C3)ncc2Cl)c(C)c1`, the IC50 is 910 nM.
On to `Cc1cnc(-c2cc(N3CCn4cc(NC(=O)C(F)(F)F)nc4C3)ncc2Cl)c(C)c1`, for which the IC50 was determined as 1800 nM.
Consider `CCC(=O)Nc1cn2c(n1)CN(c1cc(-c3ncc(C)cc3C)c(Cl)cn1)CC2`, for which the IC50 was found to be 890 nM.
Regarding `COCC(=O)Nc1cn2c(n1)CN(c1cc(-c3ncc(C)cc3C)c(Cl)cn1)CC2`, the IC50 is 650 nM.

The values above are taken from ChEMBL document CHEMBL3259530, “Scaffold hopping approach to a new series of smoothened antagonists” (Bioorg Med Chem Lett, 2014).
